In ChEMBL document CHEMBL1201862, “PubChem BioAssay data set” (2004):
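Tested at 5 concentrations; 48 h exposure; 96-well plates; endpoints linearly interpolated, else capped at highest concentration. GI50 = concentration required for 50% inhibition of growth.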 The source made the active and inactive calls. Rule as the data show it: active = GI50 up to about 1.1 µM and inactive = higher.

What was measured:
Assay in all cases: inhibition of tumour cell growth, NCI panel, 48 h
[1] = tested on: UACC-62
[2] = tested on: K562
[3] = tested on: NCI-H23
[4] = tested on: SK-MEL-28
[5] = tested on: NCI-H522
[6] = tested on: KM12
[7] = tested on: SNB-19
[8] = tested on: ACHN
[9] = tested on: OVCAR-8
[10] = tested on: OVCAR-3
[11] = tested on: NCI-H460
[12] = tested on: RXF 393
[13] = tested on: HCT-15
[14] = tested on: M14
[15] = tested on: SK-OV-3
[16] = tested on: SN12C
[17] = tested on: A498
[18] = tested on: HOP-62
[19] = tested on: CCRF-CEM
[20] = tested on: EKVX

Row | Compound | GI50 [1] | GI50 [2] | GI50 [3] | GI50 [4] | GI50 [5] | GI50 [6] | GI50 [7] | GI50 [8] | GI50 [9] | GI50 [10] | GI50 [11] | GI50 [12] | GI50 [13] [µM] | GI50 [14] | GI50 [15] | GI50 [16] | GI50 [17] | GI50 [18] | GI50 [19] | GI50 [20]
1 | CC1(C)[C@@H]2C[C@H]1C(Cc1ccccc1C[C@H]1c3cc(-c4ccccn4)ncc3[C@H]3C[C@@H]1C3(C)C)c1cc(-c3ccccn3)ncc12 (some centres undefined) | 0.292 µM (active) | 0.356 µM (active) | 0.726 µM (active) | 0.527 µM (active) | 0.448 µM (active) | 0.389 µM (active) | 0.611 µM (active) | 0.204 µM (active) | 0.378 µM (active) | 0.387 µM (active) | 0.337 µM (active) | 0.714 µM (active) | 0.41 | 0.28 µM (active) | 0.518 µM (active) | 0.479 µM (active) | 0.673 µM (active) | 0.147 µM (active) | 0.223 µM (active) | 0.461 µM (active)
2 | COc1cccc(NC(=O)CC(=O)n2nc(-c3ccccc3)c(/N=N/c3ccc(Cl)cc3)c2-c2ccccc2)c1 | 14.2 µM (inactive) | 12.4 µM (inactive) | 20 µM (inactive) | 25.5 µM (inactive) | 19.4 µM (inactive) | 31.7 µM (inactive) | 17.8 µM (inactive) | 19.9 µM (inactive) | 15.8 µM (inactive) | 22.1 µM (inactive) | 10.5 µM (inactive) | 23 µM (inactive) | 11.5 | 15.2 µM (inactive) | 5.33 µM (inactive) | 18.6 µM (inactive) | 25.6 µM (inactive) | 15.2 µM (inactive) | 6.92 µM (inactive) | 24 µM (inactive)
3 | CC(=O)OC1=C2CC3(C)OC(=O)CC(C)(C)C3=CC=C2C=C(C(C)C)C1=O (centres undefined) | 0.268 µM (active) | 0.307 µM (active) | 0.42 µM (active) | 0.456 µM (active) | 0.189 µM (active) | 1.15 µM (inactive) | 1.83 µM (inactive) | 0.518 µM (active) | 0.288 µM (active) | 1.13 µM (inactive) | 1.51 µM (inactive) | 0.184 µM (active) | 0.179 | 0.334 µM (active) | 2.09 µM (inactive) | 0.684 µM (active) | 1.57 µM (inactive) | 11.4 µM (inactive) | 0.316 µM (active) | 1.89 µM (inactive)
4 | CC(=O)/N=C1/N(/C=C2\C(=O)Oc3ccccc3C2=O)C(=O)/C(=C/c2ccc(OC(C)=O)cc2)N1C | > 100 µM (inactive) | > 100 µM (inactive) | > 100 µM (inactive) | > 100 µM (inactive) | > 100 µM (inactive) | > 100 µM (inactive) | – | > 100 µM (inactive) | > 100 µM (inactive) | 83.4 µM (inactive) | > 100 µM (inactive) | > 100 µM (inactive) | > 100 | > 100 µM (inactive) | > 100 µM (inactive) | > 100 µM (inactive) | 9.18 µM (inactive) | > 100 µM (inactive) | > 100 µM (inactive) | > 100 µM (inactive)
5 | Cc1c2cccc-2ccc2c3ccccc3n(C(=O)c3ccc(Cl)cc3)c12 | > 100 µM (inactive) | > 100 µM (inactive) | > 100 µM (inactive) | > 100 µM (inactive) | > 100 µM (inactive) | 26.7 µM (inactive) | > 100 µM (inactive) | > 100 µM (inactive) | > 100 µM (inactive) | > 100 µM (inactive) | > 89.7 µM (inactive) | > 100 µM (inactive) | 10.6 | > 100 µM (inactive) | > 100 µM (inactive) | > 100 µM (inactive) | > 100 µM (inactive) | > 100 µM (inactive) | > 57 µM (inactive) | 34.1 µM (inactive)
6 | CN(C)C(=O)C1CCC(=C2C(=O)OC(C)(C)OC2=O)N1C (centres undefined) | > 100 µM (inactive) | > 100 µM (inactive) | > 100 µM (inactive) | > 100 µM (inactive) | > 100 µM (inactive) | > 100 µM (inactive) | > 100 µM (inactive) | > 100 µM (inactive) | > 100 µM (inactive) | > 100 µM (inactive) | > 100 µM (inactive) | > 100 µM (inactive) | > 100 | > 100 µM (inactive) | > 100 µM (inactive) | > 100 µM (inactive) | > 100 µM (inactive) | > 100 µM (inactive) | > 100 µM (inactive) | > 100 µM (inactive)
7 | O=C(c1ccco1)C1CC(c2c(O)ccc3ccccc23)=NN1 (centres undefined) | 12.6 µM (inactive) | 12.4 µM (inactive) | 17.1 µM (inactive) | 21 µM (inactive) | 4.2 µM (inactive) | 11.4 µM (inactive) | 16.4 µM (inactive) | 12.5 µM (inactive) | 18.3 µM (inactive) | 12.2 µM (inactive) | 7.85 µM (inactive) | 17.4 µM (inactive) | 19 | 11.9 µM (inactive) | 21 µM (inactive) | 20.1 µM (inactive) | 18.4 µM (inactive) | 13.8 µM (inactive) | 9.71 µM (inactive) | 13.2 µM (inactive)
